Source: article PMC12603070, “A high-throughput screening approach to discover potential colorectal cancer chemotherapeutics: repurposing drugs to identify novel disruptors of 14-3-3 proteins” (Cell Death & Disease, 2025)
Read-outs that look alike come from different tables or passages of the source.

Tests used:
Caco-2 cells = format: cell-based
Description: (§1) A high-content imaging system (PerkinElmer; Operetta CLS), was used to quantify cell death and apoptosis by calculating the number of propidium iodide-positive cells relative to Hoechst-positive cells, and the number of Annexin V-positive cells relative to Hoechst-positive cells, respectively.

His-14-3-3ζ = target: T1, His-14-3-3ζ (Homo sapiens, UniProt P63104); test: Surface plasmon resonance (SPR) on immobilized His-14-3-3ζ; format: binding; conditions: for kd: SPR dissociation rate; for BI ([Signal (RU)]): SPR fit parameter, per curve; for kon: pH 7.8, SPR association rate, read-out: ka
T1 construct: made in house; host or cells: Escherichia coli BL21 LOBSTR-RIL
T1 sequence (P63104 1-245): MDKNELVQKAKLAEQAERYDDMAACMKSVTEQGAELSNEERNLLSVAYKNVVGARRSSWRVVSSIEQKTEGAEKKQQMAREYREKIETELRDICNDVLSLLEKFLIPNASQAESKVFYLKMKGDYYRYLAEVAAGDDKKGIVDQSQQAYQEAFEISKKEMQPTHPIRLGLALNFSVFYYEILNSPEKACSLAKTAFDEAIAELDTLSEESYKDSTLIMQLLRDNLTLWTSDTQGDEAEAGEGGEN
Method: The published protocol of Higuchi & Ottmann as followed with modifications to express 14-3-3ζ [44]. Escherichia coli BL21 LOBSTR-RIL cells were transformed with a plasmid encoding His-14-3-3ζ. The transformed cells were grown in TB medium containing appropriate antibiotic at 37 °C with shaking at 200 rpm until the culture reached an optical density of 0.6–0.8 at 600 nm (OD600). Protein expression was induced by the addition of isopropyl β-D-1-thiogalactopyranoside to a final concentration of 0.4 mM. Subsequently, the temperature was decreased to 16 °C and the culture incubated for another 16 h. Cells were harvested by centrifugation at 7000 × g for 20 min at 21 °C. The supernatant was discarded, and the cell pellet containing 14-3-3ζ was mixed and resuspended in lysis buffer (50 mM Tris, pH 7.80), 500 mM NaCl, 5 mM imidazole, 5% glycerol, 1 mM PMSF & 1 mM Benzamidine. Cells were lysed by sonication on ice using a probe sonicator (20 cycles of 10 s on, 20 s off, amplitude 70%). The lysate was centrifuged at 30,000 × g for 30 min at 4 °C to remove cell debris. The supernatant was collected for further purification. The 14-3-3ζ was isolated from the lysate by affinity chromatography (Ni-NTA beads, Qiagen). For further purification, the eluant was subjected to size exclusion chromatography using a Superdex 75 gel filtration column (HiLoad 16/600, GE Healthcare), pre-equilibrated with SEC buffer (20 mM Tris, pH 7.5, 150 mM NaCl, 1 mM TCEP). The protein solution was concentrated by ultrafiltration, flash frozen, and stored at −80 °C.
The general protocol for evaluating 14-3-3ζ was adapted from Hartman et al. and modified for our instrument and sensors. The SPR experiments were performed using a Open surface plasmon resonance instrument (OpenSPR^TM, Nicoya, Kitchener-Waterloo, Canada), and high sensitivity-nitrilotriacetic acid (HS-NTA) sensors. The sensor chip surface was first activated with 40 mM of NiCl2 at a flow rate of 20 μL/min using 20 mM HEPES pH 7.8, 150 mM NaCl and 1% DMSO as the running buffer. All running buffers were filtered and degassed prior to use. 100 μg/mL His-14-3-3ζ protein in 20 mM HEPES pH 7.8, 150 mM NaCl and 1% DMSO was injected at 8 μL/min flow rate for 800 s contact time and immobilized until the instrument registered 2900–3500 RU (activation and protein immobalization spectrograms are provided as Supplementary Fig. 10). Drugs were dissolved in DMSO and were diluted with 20 mM HEPES pH 7.8, 150 mM NaCl (final DMSO concentration of 1% v/v) and were injected at a flow rate of 50 μL/min. Single-cycle kinetics were applied for KD evaluation and binding affinity using TraceDrawer v.1.8.1 (Ridgeview Instruments AB).

HT-29 cells = test: Hoechst/propidium iodide cell death assay in HT-29; format: cell-based, human; conditions: for %Cell death HT-29: time not given; for cytotoxicity at 20 µM: Homo sapiens
Description: as §1

HT-29 and Caco-2 cells = test: Annexin V/propidium iodide apoptosis and caspase dependence (Z-VAD-FMK) in HT-29 and Caco-2; format: cell-based, human; conditions: for Kinetics of induction of cell death and apoptosis: time courses of PI and Annexin V incorporation, HT-29 and Caco-2, 5 and 10 µM
Method: Cells were plated at a density of 20,000 cells/well into 96-well plates (PerkinElmer; #6055302) and incubated overnight at 37 °C before the addition of the drugs. One hour prior to imaging, Hoechst 33342 (Invitrogen, #H3570) and propidium iodide (Invitrogen; #P3566) were added to the wells to achieve final concentrations of 50 ng/ml and 0.5 μg/ml, respectively. To measure apoptosis, AlexaFluor 488-conjugated Annexin V (ThermoFisher, Massachusetts, USA; #A13201) was also added at a dilution of 1:400 from the commercial stock. A high-content imaging system (PerkinElmer; Operetta CLS), was used to quantify cell death and apoptosis by calculating the number of propidium iodide-positive cells relative to Hoechst-positive cells, and the number of Annexin V-positive cells relative to Hoechst-positive cells, respectively. To assess caspase-dependent apoptosis, cells were pre-treated for 30 min with the caspase inhibitor Z-VAD-FMK (BD Biosciences, New Jersey, USA; #550377; 20 μM) or the negative control Z-FA-FMK (BD Biosciences; #550411; 20 μM) prior to the incubation of drugs.

[1] = SPR fit, value repeated per curve
[2] = SPR, immobilized His-14-3-3ζ, single-cycle kinetics, 1% DMSO
[3] = HT-29, 24 h, 20 µM, 24 h, read-out: Percentage of cell death % 24h HT-29
[4] = HT-29, 48 h, HT-29, 48h, 20 μM, read-out: Percentage of cell death % 48h, HT-29
[5] = lomitapide-treated Caco-2 cells, 10 μM, 48 h

Compound	%Cell death Caco-2 (Caco-2 cells; Caco-2) [%]	Bmax ([Signal (RU)]) (His-14-3-3ζ; SPR curve at 0.0009 mM ligand) [RU]	Bmax ([Signal (RU)]) (His-14-3-3ζ; SPR curve at 0.005 mM ligand) [RU]	Bmax ([Signal (RU)]) (His-14-3-3ζ; SPR curve at 0.02 mM ligand) [RU]	kd (His-14-3-3ζ; value repeated per curve) [s⁻¹]	BI ([Signal (RU)]) (His-14-3-3ζ) [RU]	Kd (His-14-3-3ζ; [1]) [µM]	Kd (His-14-3-3ζ; [2]) [µM]	kon (His-14-3-3ζ; value repeated per curve) [M⁻¹ s⁻¹]	%Cell death HT-29 (HT-29 cells; HT-29) [%]	cytotoxicity at 20 µM (HT-29 cells; [3]) [%]	cytotoxicity at 20 µM (HT-29 cells; [4]) [%]	Bmax ([Signal (RU)]) (His-14-3-3ζ; SPR curve at 0.01 mM ligand) [RU]	Bmax ([Signal (RU)]) (His-14-3-3ζ; SPR curve at 0.007 mM ligand) [RU]	Kinetics of induction of cell death and apoptosis (HT-29 and Caco-2 cells)	further results
CCCCCCCCc1ccc(CCC(N)(CO)CO)cc1 [Fingolimod (FTY720), Fingolimod]	67.9	2.87	227.4	342.32	0.00856	0.1	10.6	10.6	807	69.1	13.5	69.1				
O=C(NC1CCN(CCCCC2(C(=O)NCC(F)(F)F)c3ccccc3-c3ccccc32)CC1)c1ccccc1-c1ccc(C(F)(F)F)cc1 [Lomitapide]		55.11		311.25	0.0109	0.1	0.858	0.89	12700	72.9	29.5	72.9	270.8			Percentage of cell death % 24h CACO-2 (Caco-2 cells; 20 µM, 24 h): 66.0871%; Percentage of cell death % 48h, Caco-2 (Caco-2 cells; Caco-2, 48h, 20 μM): 81.7295%; %Cell death Caco-2 (Caco-2 cells; Caco-2, time not given, text says 48 h): 81.7%; Effect of Z-VAD-FMK on propidium iodide incorporation (Caco-2 cells; [5]): no effect; Bmax ([Signal (RU)]) (His-14-3-3ζ; SPR curve at 0.003 mM ligand): 159.43 RU; Kd (His-14-3-3ζ; SPR, immobilized 14-3-3ζ): 0.9 µM; Effect of Z-VAD-FMK on annexin V incorporation (HT-29 and Caco-2 cells; [5]): preventing annexin V incorporation
OC1(c2ccc(Cl)c(C(F)(F)F)c2)CCN(CCCC(c2ccc(F)cc2)c2ccc(F)cc2)CC1 [Penfluridol]	90.0	99.25	72.64		0.00974	0.1	1.35	1.35	7240	92.2	77.5	92.2	100.4	80.65	more rapidly than lomitapide	
CC(C)(C)c1ccc(C(O)CCCN2CCC(C(O)(c3ccccc3)c3ccccc3)CC2)cc1 (stereo not shown) [Terfenadine]	79.7	166.72	144.99		0.0185	0.1	2.96	2.96	6260	89.6	81.9	89.6	179.00	177.73	more rapidly than lomitapide	
